# Measured values from US12258327B2, “5-membered heteroaryl-containing aminopyridine compounds as EGFR inhibitors” (YUHAN CORPORATION, priority 2021, dated 2025).
# Read-outs that look alike come from different tables or passages of the source.
# Experiments:
# EGFR del19/T790M/C797S = EGFR del19/T790M/C797S (Homo sapiens, UniProt P00533, C797S/DEL746-750/T790M); assay: Biochemical EGFR kinase assay (Lance Ultra TR-FRET), triple mutant del19/T790M/C797S
# In short: (§1)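 Step 1: compound in kinase buffer, 0.003–10 μM. Step 2: kinase reaction 1 h at room temperature. Step 4: TR-FRET read at 615/665 nm; IC50 calculated.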
# EGFR L858R/C797S = EGFR L858R/C797S (Homo sapiens, UniProt P00533, C797S/L858R); assay: Biochemical EGFR kinase assay (Lance Ultra TR-FRET), double mutant L858R/C797S
# Sequence of EGFR L858R/C797S (P00533 25-1210 C797S/L858R): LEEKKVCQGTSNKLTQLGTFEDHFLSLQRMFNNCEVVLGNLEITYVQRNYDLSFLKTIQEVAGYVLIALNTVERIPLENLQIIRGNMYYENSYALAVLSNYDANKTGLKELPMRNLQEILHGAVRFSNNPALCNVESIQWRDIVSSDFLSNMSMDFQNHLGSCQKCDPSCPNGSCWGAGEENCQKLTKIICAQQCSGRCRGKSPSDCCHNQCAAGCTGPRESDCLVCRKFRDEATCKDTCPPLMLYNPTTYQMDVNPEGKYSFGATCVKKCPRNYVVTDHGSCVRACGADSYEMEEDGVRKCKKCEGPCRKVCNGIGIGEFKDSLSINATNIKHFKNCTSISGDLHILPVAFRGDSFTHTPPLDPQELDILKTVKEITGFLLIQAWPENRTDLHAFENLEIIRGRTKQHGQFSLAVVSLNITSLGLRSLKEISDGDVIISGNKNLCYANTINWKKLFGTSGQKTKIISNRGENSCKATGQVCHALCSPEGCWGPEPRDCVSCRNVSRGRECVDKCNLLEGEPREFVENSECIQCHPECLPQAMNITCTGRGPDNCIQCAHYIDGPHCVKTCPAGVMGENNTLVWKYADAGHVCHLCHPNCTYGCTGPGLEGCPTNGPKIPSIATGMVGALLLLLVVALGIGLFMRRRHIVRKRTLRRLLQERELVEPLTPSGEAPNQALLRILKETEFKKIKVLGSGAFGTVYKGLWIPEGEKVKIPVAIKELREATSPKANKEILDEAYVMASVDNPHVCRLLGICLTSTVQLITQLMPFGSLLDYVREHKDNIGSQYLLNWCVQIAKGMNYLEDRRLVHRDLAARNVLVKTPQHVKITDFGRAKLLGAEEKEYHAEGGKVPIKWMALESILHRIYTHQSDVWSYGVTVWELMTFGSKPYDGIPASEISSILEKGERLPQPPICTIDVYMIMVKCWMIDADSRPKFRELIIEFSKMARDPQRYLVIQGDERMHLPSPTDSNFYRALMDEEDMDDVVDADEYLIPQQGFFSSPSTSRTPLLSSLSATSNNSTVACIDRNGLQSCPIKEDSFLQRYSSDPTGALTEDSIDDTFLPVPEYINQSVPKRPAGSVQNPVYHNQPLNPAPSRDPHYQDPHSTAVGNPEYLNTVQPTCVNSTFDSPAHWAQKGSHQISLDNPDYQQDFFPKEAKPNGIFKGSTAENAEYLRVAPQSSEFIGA
# In short: as §1
# EGFR wildtype (WT) = EGFR wildtype (WT) (Homo sapiens, UniProt P00533); assay: Biochemical EGFR kinase assay (Lance Ultra TR-FRET), wildtype
# Sequence of EGFR wildtype (WT) (P00533 25-1210): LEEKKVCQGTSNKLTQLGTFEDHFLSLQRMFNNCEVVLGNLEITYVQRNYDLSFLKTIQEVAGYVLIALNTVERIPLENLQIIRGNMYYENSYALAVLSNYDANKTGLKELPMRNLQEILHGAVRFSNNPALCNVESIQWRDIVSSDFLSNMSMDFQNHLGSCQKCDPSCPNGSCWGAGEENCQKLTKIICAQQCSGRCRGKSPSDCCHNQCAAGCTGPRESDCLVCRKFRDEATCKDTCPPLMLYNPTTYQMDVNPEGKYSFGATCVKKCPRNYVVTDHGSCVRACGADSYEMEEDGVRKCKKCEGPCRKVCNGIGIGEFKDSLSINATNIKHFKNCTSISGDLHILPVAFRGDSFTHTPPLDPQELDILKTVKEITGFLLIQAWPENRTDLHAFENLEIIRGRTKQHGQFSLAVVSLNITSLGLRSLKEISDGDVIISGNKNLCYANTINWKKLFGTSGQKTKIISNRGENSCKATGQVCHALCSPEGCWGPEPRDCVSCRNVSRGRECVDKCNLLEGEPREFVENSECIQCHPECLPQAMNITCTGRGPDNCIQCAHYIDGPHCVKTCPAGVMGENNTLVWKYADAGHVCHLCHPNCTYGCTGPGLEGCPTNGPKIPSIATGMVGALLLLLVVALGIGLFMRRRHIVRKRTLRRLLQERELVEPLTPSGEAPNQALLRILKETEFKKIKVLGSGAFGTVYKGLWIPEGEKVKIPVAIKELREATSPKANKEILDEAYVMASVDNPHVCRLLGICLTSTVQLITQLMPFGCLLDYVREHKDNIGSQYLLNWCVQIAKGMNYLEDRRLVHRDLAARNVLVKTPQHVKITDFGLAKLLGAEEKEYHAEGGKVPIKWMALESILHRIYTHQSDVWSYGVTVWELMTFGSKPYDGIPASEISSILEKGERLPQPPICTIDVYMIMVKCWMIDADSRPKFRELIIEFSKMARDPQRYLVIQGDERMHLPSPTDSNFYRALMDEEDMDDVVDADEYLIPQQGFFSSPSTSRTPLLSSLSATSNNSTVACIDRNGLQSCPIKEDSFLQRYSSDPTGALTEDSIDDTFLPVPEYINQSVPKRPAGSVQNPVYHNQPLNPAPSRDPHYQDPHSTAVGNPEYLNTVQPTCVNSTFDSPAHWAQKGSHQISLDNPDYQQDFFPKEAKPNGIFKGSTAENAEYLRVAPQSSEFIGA
# In short: as §1
# EGFR del19/C797S = EGFR del19/C797S (Homo sapiens, UniProt P00533, C797S/DEL746-750); assay: Biochemical EGFR kinase assay (Lance Ultra TR-FRET), double mutant del19/C797S
# In short: as §1
# EGFR L858R/T790M/C797S = EGFR L858R/T790M/C797S (Homo sapiens, UniProt P00533, C797S/L858R/T790M); assay: Biochemical EGFR kinase assay (Lance Ultra TR-FRET), triple mutant L858R/T790M/C797S
# Sequence of EGFR L858R/T790M/C797S (P00533 25-1210 T790M/C797S/L858R): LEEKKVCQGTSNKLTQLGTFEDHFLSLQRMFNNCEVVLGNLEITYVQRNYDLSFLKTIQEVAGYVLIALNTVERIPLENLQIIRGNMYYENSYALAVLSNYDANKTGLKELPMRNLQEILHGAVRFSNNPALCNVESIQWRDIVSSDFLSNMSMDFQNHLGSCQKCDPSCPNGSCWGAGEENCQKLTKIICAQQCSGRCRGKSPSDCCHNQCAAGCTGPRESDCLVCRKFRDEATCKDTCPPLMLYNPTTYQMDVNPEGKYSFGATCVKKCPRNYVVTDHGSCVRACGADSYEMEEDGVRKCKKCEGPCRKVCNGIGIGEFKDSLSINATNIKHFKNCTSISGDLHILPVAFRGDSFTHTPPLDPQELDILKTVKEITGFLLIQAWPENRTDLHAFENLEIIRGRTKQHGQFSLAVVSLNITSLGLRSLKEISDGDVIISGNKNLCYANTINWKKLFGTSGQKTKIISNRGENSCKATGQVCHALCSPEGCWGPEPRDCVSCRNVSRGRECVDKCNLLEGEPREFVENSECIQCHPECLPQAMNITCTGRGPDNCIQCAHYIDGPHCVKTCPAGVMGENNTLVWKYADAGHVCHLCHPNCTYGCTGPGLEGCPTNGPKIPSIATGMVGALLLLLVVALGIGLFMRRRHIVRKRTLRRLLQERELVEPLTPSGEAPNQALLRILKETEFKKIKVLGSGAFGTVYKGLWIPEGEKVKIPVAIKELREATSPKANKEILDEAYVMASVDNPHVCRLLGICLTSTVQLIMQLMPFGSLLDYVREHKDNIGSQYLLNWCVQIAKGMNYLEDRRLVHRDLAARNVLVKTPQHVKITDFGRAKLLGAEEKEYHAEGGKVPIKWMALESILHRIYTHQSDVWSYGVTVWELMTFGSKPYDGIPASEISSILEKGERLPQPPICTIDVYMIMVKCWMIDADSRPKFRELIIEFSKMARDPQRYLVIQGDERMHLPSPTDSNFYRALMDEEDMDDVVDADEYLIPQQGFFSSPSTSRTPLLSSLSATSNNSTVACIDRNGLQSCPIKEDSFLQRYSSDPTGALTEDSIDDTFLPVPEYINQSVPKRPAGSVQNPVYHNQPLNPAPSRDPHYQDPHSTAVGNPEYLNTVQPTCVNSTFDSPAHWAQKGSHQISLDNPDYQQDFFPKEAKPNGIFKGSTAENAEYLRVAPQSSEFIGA
# In short: as §1
# [1] = Km ATP, read-out: IC50 del19/T790M/C797S (nM) Km ATP
# [2] = Km ATP, read-out: IC50 L858R/C797S (nM) Km ATP
# [3] = Km ATP, read-out: IC50 WT (nM) Km ATP
# [4] = Km ATP, read-out: IC50 del19/C797S (nM) Km ATP
# [5] = Km ATP, read-out: IC50 L858R/T790M/C797S (nM) Km ATP
# [6] = IC50 del19/T790M/C797S (nM) 100 μM ATP, 100 μM ATP
# [7] = IC50 L858R/C797S (nM) 100 μM ATP, 100 μM ATP
# [8] = IC50 WT (nM) 100 μM ATP, 100 μM ATP
# [9] = IC50 del19/C797S (nM) 100 μM ATP, 100 μM ATP
# [10] = IC50 L858R/T790M/C797S (nM) 100 μM ATP, 100 μM ATP
# Sequence of EGFR del19/T790M/C797S (P00533 with tags, fused parts or gaps DEL746-750/T790M/C797S): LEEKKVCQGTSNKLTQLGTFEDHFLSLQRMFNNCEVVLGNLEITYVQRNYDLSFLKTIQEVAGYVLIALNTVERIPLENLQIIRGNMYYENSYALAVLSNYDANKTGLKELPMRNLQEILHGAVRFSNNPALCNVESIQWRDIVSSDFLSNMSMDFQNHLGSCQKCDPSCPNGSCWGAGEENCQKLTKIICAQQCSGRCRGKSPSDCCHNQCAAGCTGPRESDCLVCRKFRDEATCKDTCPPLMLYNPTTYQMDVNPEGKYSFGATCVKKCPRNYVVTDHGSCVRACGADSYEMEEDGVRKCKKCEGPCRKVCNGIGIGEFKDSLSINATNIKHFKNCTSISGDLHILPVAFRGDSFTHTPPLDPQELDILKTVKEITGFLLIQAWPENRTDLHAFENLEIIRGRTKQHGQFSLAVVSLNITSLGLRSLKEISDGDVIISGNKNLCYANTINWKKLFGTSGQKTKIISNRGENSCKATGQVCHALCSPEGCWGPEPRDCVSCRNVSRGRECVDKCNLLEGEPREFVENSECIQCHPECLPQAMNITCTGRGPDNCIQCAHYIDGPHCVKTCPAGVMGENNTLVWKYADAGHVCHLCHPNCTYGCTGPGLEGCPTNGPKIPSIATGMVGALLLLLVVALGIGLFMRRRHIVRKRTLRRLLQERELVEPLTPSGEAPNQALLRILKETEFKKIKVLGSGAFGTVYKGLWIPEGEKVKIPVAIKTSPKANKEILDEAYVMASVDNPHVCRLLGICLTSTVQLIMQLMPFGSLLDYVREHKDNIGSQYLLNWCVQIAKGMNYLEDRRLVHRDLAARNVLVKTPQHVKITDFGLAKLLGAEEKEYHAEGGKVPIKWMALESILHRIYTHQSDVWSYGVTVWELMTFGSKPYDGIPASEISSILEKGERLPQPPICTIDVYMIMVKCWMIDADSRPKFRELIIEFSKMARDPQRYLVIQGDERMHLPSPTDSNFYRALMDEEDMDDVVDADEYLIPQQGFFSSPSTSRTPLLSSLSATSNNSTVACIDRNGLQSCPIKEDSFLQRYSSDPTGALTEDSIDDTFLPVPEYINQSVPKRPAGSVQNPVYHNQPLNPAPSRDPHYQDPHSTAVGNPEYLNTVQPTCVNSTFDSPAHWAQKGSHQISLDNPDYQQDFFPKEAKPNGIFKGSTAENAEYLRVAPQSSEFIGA
IC50 (EGFR del19/T790M/C797S; [1]) [nM],IC50 (EGFR L858R/C797S; [2]) [nM],IC50 (EGFR wildtype (WT); [3]) [nM],IC50 (EGFR del19/C797S; [4]) [nM],IC50 (EGFR L858R/T790M/C797S; [5]) [nM],IC50 (EGFR del19/T790M/C797S; [6]) [nM],IC50 (EGFR L858R/C797S; [7]) [nM],IC50 (EGFR wildtype (WT); [8]) [nM],IC50 (EGFR del19/C797S; [9]) [nM],IC50 (EGFR L858R/T790M/C797S; [10]) [nM],Compound,"IC50 (EGFR del19/T790M/C797S; read-out: IC50 del19/T790M/C797S (nM) 100 μM ATP, 100 μM ATP) [nM]","IC50 (EGFR L858R/C797S; read-out: IC50 L858R/C797S (nM) 100 μM ATP, 100 μM ATP) [nM]","IC50 (EGFR wildtype (WT); read-out: IC50 WT (nM) 100 μM ATP, 100 μM ATP) [nM]","IC50 (EGFR del19/C797S; read-out: IC50 del19/C797S (nM) 100 μM ATP, 100 μM ATP) [nM]","IC50 (EGFR L858R/T790M/C797S; read-out: IC50 L858R/T790M/C797S (nM) 100 μM ATP, 100 μM ATP) [nM]"
,,,,,,,,,,"CN[C@H]1CC[C@@H](Nc2cc(Nc3ccnc(-c4cnn(S(=O)(=O)C5CC5)c4)n3)ncc2-c2ccn(C(C)C)n2)CC1 [Example 86, N^2-(2-(1-(Cyclopropylsulfonyl)-1H-pyrazol-4-yl)pyrimidin-4-yl)-5-(1-isopropyl-1H-pyrazol-3-yl)-N^4-((1s,4s)-4-(methylamino)cyclohexyl)pyridine-2,4-diamine]",0.2,14.8,8510,3.2,0.3
0.4,16.9,184,47.3,0.3,,,,,,"Cc1nn(C)c(F)c1-c1nccc(Nc2cc(N[C@H]3CC[C@@](C)(O)CC3)c(-c3ccn(C(F)F)n3)cn2)n1 [Example 319, (1s,4s)-4-((5-(1-(Difluoromethyl)-1H-pyrazol-3-yl)-2-((2-(5-fluoro-1,3-dimethyl-1H-pyrazol-4-yl)pyrimidin-4-yl)amino)pyridin-4-yl)amino)-1-methylcyclohexan-1-ol]",,,,,
,,,,,0.1,0.9,206,0.3,0.1,"CN(C)C[C@H]1CC[C@@H](Nc2cc(Nc3ccnc(-c4cnn(S(=O)(=O)C5CC5)c4)n3)ncc2-c2ccn(CC(F)(F)F)n2)CC1 [Example 266, N^2-(2-(1-(Cyclopropylsulfonyl)-1H-pyrazol-4-yl)pyrimidin-4-yl)-N^4-((1s,4s)-4-((dimethylamino)methyl)cyclohexyl)-5-(1-(2,2,2-trifluoroethyl)-1H-pyrazol-3-yl)pyridine-2,4-diamine]",,,,,
0.2,1,4,0.3,0.1,0.2,7.2,2050,0.7,0.1,"CN[C@H]1CC[C@H](CNc2cc(Nc3ccnc(-c4cnn(S(=O)(=O)C5CC5)c4)n3)ncc2-c2ccn(C(F)F)n2)CC1 [Example 193, N^2-(2-(1-(Cyclopropylsulfonyl)-1H-pyrazol-4-yl)pyrimidin-4-yl)-5-(1-(difluoromethyl)-1H-pyrazol-3-yl)-N^4-(((1r,4r)-4-(methylamino)cyclohexyl)methyl)pyridine-2,4-diamine]",,,,,
1.1,4.7,19.9,10.8,0.4,,,,,,"OCC[C@H]1CC[C@@H](Nc2cc(Nc3ccnc(-c4cnn(CC(F)F)c4)n3)ncc2-c2ccn(C(F)F)n2)CC1 [Example 146, 2-((1s,4s)-4-((2-((2-(1-(2,2-Difluoroethyl)-1H-pyrazol-4-yl)pyrimidin-4-yl)amino)-5-(1-(difluoromethyl)-1H-pyrazol-3-yl)pyridin-4-yl)amino)cyclohexyl)ethan-1-ol]",,,,,
0.7,,112,21,0.4,0.8,379,> 10000,30.3,1.3,"O=S(=O)(C1CC1)n1cc(-c2nccc(Nc3cc(N[C@H]4CC[C@@H](NCCF)CC4)c(-c4csc(N5CCOCC5)n4)cn3)n2)cn1 [Example 126, N^2-(2-(1-(Cyclopropylsulfonyl)-1H-pyrazol-4-yl)pyrimidin-4-yl)-N^4-((1s,4s)-4-((2-fluoroethyl)amino)cyclohexyl)-5-(2-morpholinothiazol-4-yl)pyridine-2,4-diamine]",,,,,
,,,,,0.7,160,> 10000,18,3.2,"O=S(=O)(C1CC1)n1cc(-c2nccc(Nc3cc(NC4CCC(NCCO)CC4)c(-c4csc(C(F)(F)F)n4)cn3)n2)cn1 (centres unmarked) [Example 97, 2-((4-((2-((2-(1-(Cyclopropylsulfonyl)-1H-pyrazol-4-yl)pyrimidin-4-yl)amino)-5-(2-(trifluoromethyl)thiazol-4-yl)pyridin-4-yl)amino)cyclohexyl)amino)ethan-1-ol]",,,,,
